The values below come from article PMC9250534, “Synthesis and direct assay of large macrocycle diversities by combinatorial late-stage modification at picomole scale” (Nature Communications, 2022).

The target in the assay is MDM2 (Homo sapiens, UniProt Q00987). Description: MDM2 binding screen of Libraries 3 and 4: displacement of fluorescent probe F-M8 at 750 nM macrocycle. As for the experimental part: The cyclic peptide scaffolds required for Libraries 3 and 4 were synthesized as described for those used in Library 2. Due to the presence of many N-methylated amino acids which are more difficult to couple, 200 mM HOAt was applied together with HATU. The scaffolds were diluted to 2 mM in DMSO, and 15 nL were transferred using acoustic dispensing, followed by 15 nL DMSO containing carboxylic acids (40 mM, 20 equiv.), HBTU (40 mM) and DABCO (40 mM). After 6 h reaction at room temperature, 370 nL of DMSO was added to each well, followed by 5 μL of 100 mM Tris-Cl pH 7.4 containing 0.01% v/v Tween20, for quenching overnight.
Sequence of MDM2 (Q00987 whole entry): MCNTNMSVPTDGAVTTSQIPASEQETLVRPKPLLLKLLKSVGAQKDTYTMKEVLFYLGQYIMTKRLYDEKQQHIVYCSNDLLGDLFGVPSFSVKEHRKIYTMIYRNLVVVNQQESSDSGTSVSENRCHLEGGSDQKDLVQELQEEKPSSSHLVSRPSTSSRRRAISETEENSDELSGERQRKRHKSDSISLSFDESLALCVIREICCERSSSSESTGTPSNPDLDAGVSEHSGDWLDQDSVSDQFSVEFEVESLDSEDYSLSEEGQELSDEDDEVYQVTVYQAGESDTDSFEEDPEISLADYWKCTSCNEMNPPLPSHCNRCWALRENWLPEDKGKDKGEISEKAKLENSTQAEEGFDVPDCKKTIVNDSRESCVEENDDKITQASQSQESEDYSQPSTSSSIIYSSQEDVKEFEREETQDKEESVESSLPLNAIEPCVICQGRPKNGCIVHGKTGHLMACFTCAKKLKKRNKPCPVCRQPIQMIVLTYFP

[1] abbreviates: Panel b, Library 3: 63 scaffolds combinatorially acylated with 15 carboxylic acids at 30 picomole scale, displacement of fluorescent peptide probe, macrocycle 750 nM.
[2] abbreviates: Panel c, Library 4: best nine scaffolds and 15 additional carboxylic acids, displacement of fluorescent probe.

Molecules are shown by their SMILES.

`O=C(/C=C/c1ccc(OCc2ccccc2)cc1)NC[C@H]1NC(=O)[C@@H]2CN(CCO2)C(=O)CCSSCCNC(=O)[C@H](Cc2c[nH]c3cc(Cl)ccc23)NC1=O` [X-Cop-D-Dap-Cl-Trp + Acid 110]: under setting [1], the “fraction of fluorescent probe displaced” value came out at 0.035. The same measure, in the same setting: with `O=C(/C=C/c1ccc(Cl)cc1)NC[C@@H]1NC(=O)[C@H]2CCCN(C2)C(=O)CCSSCCNC(=O)[C@H](Cc2ccc3ccccc3c2)NC1=O` [X-Nip-Dap-2-Nal + Acid 108] the figure was 0.021; with `CC(Oc1cccc(Cl)c1)C(=O)NC[C@@H]1NC(=O)[C@@H]2CN(CCO2)C(=O)CCSSCCNC(=O)[C@H](Cc2c[nH]c3ccccc23)NC1=O` (stereo partly drawn) [X-Cop-Dap-Trp + Acid 113], -0.00533. With `O=C(/C=C/c1ccncc1)NC[C@@H]1NC(=O)[C@H]2CCCN(C2)C(=O)CCSSCCNC(=O)[C@@H](Cc2c[nH]c3ccccc23)NC1=O` [X-Nip-Dap-D-Trp + Acid 106], the “fraction of fluorescent probe displaced” value under setting [1] is recorded as -0.015. Same read-out and setting: with `O=C(/C=C/c1ccc(OCc2ccccc2)cc1)NC[C@H]1NC(=O)C2(CC2)CNC(=O)CCSSCCNC(=O)[C@H](Cc2ccc3ccccc3c2)NC1=O` [X-Amcp-D-Dap-2-Nal + Acid 110] the figure was 0.028. Consider `O=C(/C=C/c1cccc(Cl)c1)NC[C@@H]1NC(=O)[C@H]2CCCN(C2)C(=O)CCSSCCNC(=O)[C@H](Cc2c[nH]c3ccccc23)NC1=O` [X-Nip-Dap-Trp + Acid 121], for which, under setting [2], the “fraction of fluorescent probe displaced” value amounted to 0.468. For the compound `O=C1CCSSCCNC(=O)[C@H](Cc2cccc3ccccc23)NC(=O)[C@H](CNC(=O)c2ccc(Cl)s2)NC(=O)C2(CC2)CN1` [X-Amcp-Dap-1-NaI + Acid 14], under setting [1], the “fraction of fluorescent probe displaced” value was -0.019.

For `CN1C(=O)[C@@H](CNC(=O)c2ccc3ccccc3c2)NC(=O)C2(CC2)CNC(=O)CCSSCCNC(=O)[C@@H]1Cc1c[nH]c2ccccc12` [X-Amcp-D-Dap-NMe-Trp + Acid 107], the “fraction of fluorescent probe displaced” value under setting [1] amounted to 0.031. Still for that read-out and setting: with `CN1C(=O)[C@H](CNC(=O)CCS(=O)(=O)c2ccccc2)NC(=O)[C@H]2CCCN(C2)C(=O)CCSSCCNC(=O)[C@@H]1Cc1c[nH]c2ccccc12` [X-Nip-Dap-NMe-Trp + Acid 114] the figure was 0.021. Take `CC(=Cc1ccccc1)C(=O)NCC1NC(=O)C2CCCN(C2)C(=O)CCSSCCNC(=O)C(Cc2ccc3ccccc3c2)NC1=O` (stereo not drawn) [X-Nip-Dap-2-Nal + Acid 123]: the “fraction of fluorescent probe displaced” value under setting [2] amounted to 0.012.

With `CN1C(=O)[C@@H](CNC(=O)c2ccc(Cl)cc2)NC(=O)[C@H]2CCCN(C2)C(=O)CCSSCCNC(=O)[C@@H]1Cc1c[nH]c2ccccc12` [X-Nip-D-Dap-NMe-Trp + Acid 25], under setting [1], the “fraction of fluorescent probe displaced” value was 0.00133.

For the compound `O=C(/C=C/c1cccc(C(F)(F)F)c1)NC[C@@H]1NC(=O)C2(CC2)CNC(=O)CCSSCCNC(=O)[C@H](Cc2c[nH]c3ccccc23)NC1=O` [X-Amcp-Dap-Trp + Acid 122], the “fraction of fluorescent probe displaced” value under setting [2] was 0.052.

For the compound `CC(Oc1cccc(Cl)c1)C(=O)NCC1NC(=O)C2CCCN(C2)C(=O)CCSSCCNC(=O)C(Cc2c[nH]c3ccccc23)N(C)C1=O` (mixture of isomers) [X-Nip-D-Dap-NMe-Trp + Acid 113], the “fraction of fluorescent probe displaced” value under setting [1] is recorded as 0.00133. Still for that read-out and setting: under `O=C(NC[C@H]1NC(=O)[C@H]2CCCN(C2)C(=O)CCSSCCNC(=O)[C@@H](Cc2c[nH]c3ccccc23)NC1=O)c1ccc2ccccc2c1` [X-Nip-D-Dap-D-Trp + Acid 107] stands 0.050; under `O=C(/C=C/c1ccc(Cl)cc1)NC[C@@H]1NC(=O)[C@H]2CCCN(C2)C(=O)CCSSCCNC(=O)[C@H](Cc2c[nH]c3cc(Cl)ccc23)NC1=O` [X-Nip-Dap-Cl-Trp + Acid 108], 0.108.

In the case of `O=C(/C=C/c1ccc(Cl)cc1)NC[C@@H]1NC(=O)C2(CC2)CNC(=O)CCSSCCNC(=O)[C@H](Cc2ccc3ccccc3c2)NC1=O` [X-Amcp-Dap-2-Nal + Acid 108], the “fraction of fluorescent probe displaced” value under setting [1] came out at 0.008. The same measure, in the same setting: under `CN1C(=O)CN(CCNC(=O)CCS(=O)(=O)c2ccccc2)C(=O)[C@H]2CCCN(C2)C(=O)CCSSCCNC(=O)[C@@H]1Cc1c[nH]c2ccccc12` [X-Nip-N-Aeg-NMe-Trp + Acid 114] stands -0.00533; under `O=C1CCSSCCNC(=O)[C@@H](Cc2c[nH]c3ccccc23)NC(=O)CN(CCNC(=O)C2COc3ccccc3O2)C(=O)C2(CC2)CN1` (stereo partly drawn) [X-Amcp-N-Aeg-D-Trp + Acid 115], 0.048. Same read-out and setting: under `O=C(NC[C@H]1NC(=O)[C@H]2CCCN(C2)C(=O)CCSSCCNC(=O)[C@H](Cc2cccc3ccccc23)NC1=O)c1ccc(Cl)cc1` [X-Nip-D-Dap-1-NaI + Acid 25] stands 0.015; under `O=C(NC[C@H]1NC(=O)[C@H]2CCCN(C2)C(=O)CCSSCCNC(=O)[C@H](Cc2cccc3ccccc23)NC1=O)c1ccc2ccccc2c1` [X-Nip-D-Dap-1-NaI + Acid 107], 0.00455. On to `O=C(/C=C/c1cccc(C(F)(F)F)c1)NC[C@@H]1NC(=O)[C@H]2CCCN(C2)C(=O)CCSSCCNC(=O)[C@H](Cc2cccc3ccccc23)NC1=O` [X-Nip-Dap-1-NaI + Acid 122], for which the “fraction of fluorescent probe displaced” value under setting [2] was 0.0035.

As for `CCOc1ccc(/C=C/C(=O)NC[C@@H]2NC(=O)[C@H]3CCCN(C3)C(=O)CCSSCCNC(=O)[C@H](Cc3cccc4ccccc34)NC2=O)cc1` [X-Nip-Dap-1-NaI + Acid 117], under setting [2], the “fraction of fluorescent probe displaced” value stood at 0.069. Consider `CC(Oc1cccc(Cl)c1)C(=O)NC[C@@H]1NC(=O)[C@H]2CCCN(C2)C(=O)CCSSCCNC(=O)[C@H](Cc2cccc3ccccc23)NC1=O` (stereo partly drawn) [X-Nip-Dap-1-NaI + Acid 113], for which, under setting [1], the “fraction of fluorescent probe displaced” value is recorded as -0.019.

`O=C(/C=C/c1ccc2ccccc2c1)NCCN1CC(=O)N[C@@H](Cc2cccc3ccccc23)C(=O)NCCSSCCC(=O)NCC2(CC2)C1=O` [X-Amcp-N-Aeg-1-NaI + Acid 112]: the “fraction of fluorescent probe displaced” value under setting [1] came out at 0.008. Still for that read-out and setting: with `O=C(NC[C@H]1NC(=O)[C@@H]2CN(CCO2)C(=O)CCSSCCNC(=O)[C@H](Cc2c[nH]c3ccccc23)NC1=O)c1ccc(Cl)cc1` [X-Cop-D-Dap-Trp + Acid 25] the figure was 0.00133; with `O=C(NC[C@@H]1NC(=O)[C@@H]2CN(CCO2)C(=O)CCSSCCNC(=O)[C@H](Cc2c[nH]c3ccccc23)NC1=O)C1COc2ccccc2O1` (stereo partly drawn) [X-Cop-Dap-Trp + Acid 115], -0.00533; with `O=C(/C=C/c1ccc(Cl)cc1)NCCN1CC(=O)N[C@@H](Cc2cccc3ccccc23)C(=O)NCCSSCCC(=O)N2CCC[C@@H](C2)C1=O` [X-Nip-N-Aeg-1-NaI + Acid 108], 0.021. Same read-out and setting: with `O=C1CCSSCCNC(=O)[C@H](Cc2c[nH]c3ccccc23)NC(=O)[C@H](CNC(=O)c2ccc3ccccc3c2)NC(=O)C2(CC2)CN1` [X-Amcp-Dap-Trp + Acid 107] the figure was 0.063; with `CC(Oc1cccc(Cl)c1)C(=O)NCCN1CC(=O)N[C@@H](Cc2cn(C)c3ccccc23)C(=O)NCCSSCCC(=O)N2CCC[C@@H](C2)C1=O` (stereo partly shown) [X-Nip-N-Aeg-Me-Trp + Acid 113], 0.008. For `O=C(/C=C/c1cccc(C(F)(F)F)c1)NC[C@@H]1NC(=O)[C@H]2CCCN(C2)C(=O)CCSSCCNC(=O)[C@H](Cc2c[nH]c3cc(Cl)ccc23)NC1=O` [X-Nip-Dap-Cl-Trp + Acid 122], the “fraction of fluorescent probe displaced” value under setting [2] is 0.166. On the same count and under the same terms, with `CCCOc1ccc(/C=C/C(=O)NC[C@@H]2NC(=O)[C@H]3CCCN(C3)C(=O)CCSSCCNC(=O)[C@H](Cc3c[nH]c4ccccc34)NC2=O)cc1` [X-Nip-Dap-Trp + Acid 118] the figure was 0.435; with `CC(C)c1ccc(/C=C/C(=O)O)cc1` [Acid 127], -0.021. Regarding `Cn1cc(C[C@@H]2NC(=O)[C@H](CNC(=O)/C=C/c3ccc(OCc4ccccc4)cc3)NC(=O)C3(CC3)CNC(=O)CCSSCCNC2=O)c2ccccc21` [X-Amcp-Dap-Me-Trp + Acid 110], under setting [1], the “fraction of fluorescent probe displaced” value is recorded as 0.008. Still for that read-out and setting: under `O=C(NC[C@@H]1NC(=O)[C@@H]2CN(CCO2)C(=O)CCSSCCNC(=O)[C@H](Cc2c[nH]c3cc(Cl)ccc23)NC1=O)c1ccc(Cl)s1` [X-Cop-Dap-Cl-Trp + Acid 14] stands 0.128. Still for that read-out and setting: under `O=C(NC[C@H]1NC(=O)[C@H]2CCCN(C2)C(=O)CCSSCCNC(=O)[C@H](Cc2ccc3ccccc3c2)NC1=O)c1cccc(Oc2ccccc2)c1` [X-Nip-D-Dap-2-Nal + Acid 111] stands 0.00133; under `Cn1cc(C[C@@H]2NC(=O)[C@@H](CNC(=O)c3ccc(Cl)s3)NC(=O)[C@@H]3CN(CCO3)C(=O)CCSSCCNC2=O)c2ccccc21` [X-Cop-D-Dap-Me-Trp + Acid 14], -0.00533; under `CN1C(=O)[C@@H](CNC(=O)/C=C/c2ccc(OCc3ccccc3)cc2)NC(=O)[C@H]2CCCN(C2)C(=O)CCSSCCNC(=O)[C@@H]1Cc1c[nH]c2ccccc12` [X-Nip-D-Dap-NMe-Trp + Acid 110], -0.00533. The same measure, in the same setting: under `O=C(CCS(=O)(=O)c1ccccc1)NC[C@@H]1NC(=O)[C@H]2CCCN(C2)C(=O)CCSSCCNC(=O)[C@H](Cc2c[nH]c3cc(Cl)ccc23)NC1=O` [X-Nip-Dap-Cl-Trp + Acid 114] stands -0.012. On to `O=C(/C=C/c1ccc2ccccc2c1)NCCN1CC(=O)N[C@@H](Cc2c[nH]c3ccccc23)C(=O)NCCSSCCC(=O)N2CCO[C@@H](C2)C1=O` [X-Cop-N-Aeg-Trp + Acid 112], for which the “fraction of fluorescent probe displaced” value under setting [1] came to 0.028. On the same count and under the same terms, under `O=C(O)/C=C/c1ccc(Cl)cc1` [Acid 108] stands 0.015.
